Active and inactive are the calls of the source. The calls are words filed in the database; no cut-off is given here.
Columns and labels:
[1] = Inhibition of Coagulation factor I.
Coagulation factor X = Coagulation factor X (Homo sapiens, UniProt P00742); test: Binding affinity towards coagulation factor Xa.
[2] = target: Thrombin and coagulation factor X (Homo sapiens) (UniProt P00734+P00742); test: Selectivity ratio for binding to factor Xa (Ki) and thrombin (Ki); assay type: protein assay
Rattus norvegicus [3] = test: Alanine transaminase level was measured in rats after administration intravenously at a dose(bolus) of 20 umol/kg; assay type: functional, organism-based; set-up: unit not given here
Prothrombin = Prothrombin (Homo sapiens, UniProt P00734); test: Binding affinity towards thrombin was tested.
[4] = Selectivity ratio for binding to factor I (IC50) and thrombin (Ki)
Rattus norvegicus [5] = test: Effect of factor I selectivity on hypotension was evaluated in rats after administration intravenously at a dose(bolus) of 2 umol/kg; assay type: functional
Rattus norvegicus [6] = test: Effect of factor I selectivity on hypotension was evaluated in rats after administration intravenously at a dose(bolus) of 20umol/Kg, activity expressed as drop in blood pressure; No effect; assay type: functional, organism-based
Rattus norvegicus [7] = test: Effect of factor I selectivity on hypotension was evaluated in rats after administration intravenously at a dose(bolus) of 20umol/Kg, activity expressed as drop in blood pressure; assay type: functional

Sequence of Thrombin and coagulation factor X (Homo sapiens) (P00742 whole entry, looked up, other chains not shown): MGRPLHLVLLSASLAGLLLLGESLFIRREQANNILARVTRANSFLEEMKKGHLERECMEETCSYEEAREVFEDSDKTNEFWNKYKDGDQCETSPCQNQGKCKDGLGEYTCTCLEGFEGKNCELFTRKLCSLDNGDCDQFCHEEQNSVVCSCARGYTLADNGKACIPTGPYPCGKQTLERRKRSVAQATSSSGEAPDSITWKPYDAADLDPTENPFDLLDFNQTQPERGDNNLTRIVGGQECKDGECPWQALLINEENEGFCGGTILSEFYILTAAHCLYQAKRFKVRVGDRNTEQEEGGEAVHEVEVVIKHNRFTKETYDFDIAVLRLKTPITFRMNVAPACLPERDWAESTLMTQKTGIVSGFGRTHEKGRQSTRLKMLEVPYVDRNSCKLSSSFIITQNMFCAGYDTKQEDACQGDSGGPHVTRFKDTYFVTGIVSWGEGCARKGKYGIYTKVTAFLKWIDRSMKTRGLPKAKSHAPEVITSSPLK
Sequence of Coagulation factor X (P00742 41-179 limits assumed): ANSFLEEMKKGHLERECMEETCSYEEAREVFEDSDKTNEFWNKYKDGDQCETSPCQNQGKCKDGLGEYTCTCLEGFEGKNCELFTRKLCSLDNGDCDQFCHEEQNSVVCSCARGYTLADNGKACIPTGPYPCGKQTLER
Sequence of Coagulation factor X (P00742 235-488 limits assumed): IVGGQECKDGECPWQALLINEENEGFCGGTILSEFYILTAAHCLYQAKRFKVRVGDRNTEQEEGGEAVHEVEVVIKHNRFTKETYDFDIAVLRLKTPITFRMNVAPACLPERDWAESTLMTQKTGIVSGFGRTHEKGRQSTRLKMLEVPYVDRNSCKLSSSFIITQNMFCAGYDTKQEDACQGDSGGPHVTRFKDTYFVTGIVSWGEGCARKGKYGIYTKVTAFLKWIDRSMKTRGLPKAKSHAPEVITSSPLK

| SMILES | IC50 [1] [nM] | Ki (Coagulation factor X) [nM] | Ratio [2] | Level (Rattus norvegicus [3]) | Ki (Prothrombin) [nM] | Ratio [4] | BP (Rattus norvegicus [5]) [mmHg] | BP (Rattus norvegicus [6]) | BP (Rattus norvegicus [7]) [mmHg] |
| --- | --- | --- | --- | --- | --- | --- | --- | --- | --- |
| CC(=O)N[C@H](Cc1ccccc1)C(=O)N1CCC[C@H]1C(=O)N[C@@H](CCCN=C(N)N)B(O)O.Cl | 10 |  |  |  |  |  | >40 |  |  |
| N/C=N/CCCC(NC(=O)CN(CC1(c2ccccc2)CCCC1)C(=O)CCc1ccccc1)B(O)O (stereo unspecified) | > 50000 |  | 210 | 60 |  | > 16700 |  |  |  |
| N=C(N)NCCCC(NC(=O)CN(CC1(c2ccccc2)CC1)C(=O)CCc1ccccc1)B(O)O (stereo unspecified) | 540 | 46 | 767 | 89 | 0.06 | 9000 |  | inactive |  |
| NCCCCC(NC(=O)CN(CC1(c2ccccc2)CCCC1)C(=O)CCc1ccccc1)B(O)O (stereo unspecified) | 19000 | 1390 | 579 | 66 | 2.4 | 7920 |  |  |  |
| N/C=N/CCCC(NC(=O)CN(CC1(c2ccccc2)CC1)C(=O)CCc1ccccc1)B(O)O (stereo unspecified) | 7700 |  | 361 | 66 |  | 9280 |  |  |  |
| N=CNCCCC(NC(=O)CN(CCc1ccccc1)C(=O)CCc1ccccc1)B(O)O (stereo unspecified) |  | 22 |  |  | 0.89 |  |  |  |  |
| N=CNCCCC(NC(=O)CN(CC1(c2ccccc2)CCCC1)C(=O)CCc1ccccc1)B(O)O (stereo unspecified) |  | 630 |  |  | 3 |  |  |  |  |
| N/C=N/CCCC(NC(=O)CN(CCc1ccccc1)C(=O)CCc1ccccc1)B(O)O (stereo unspecified) | 2730 |  | 25 | 55 |  | 3070 |  |  |  |
| NCCCCC(NC(=O)CN(CCc1ccccc1)C(=O)CCc1ccccc1)B(O)O (stereo unspecified) | 1500 | 130 | 310 | 60 | 0.42 | 3570 |  |  |  |
| N=CNCCCC(NC(=O)CN(CC1(c2ccccc2)CC1)C(=O)CCc1ccccc1)B(O)O (stereo unspecified) |  | 300 |  |  | 0.83 |  |  |  |  |
| NCCCCC(NC(=O)CN(CC1(c2ccccc2)CC1)C(=O)CCc1ccccc1)B(O)O (stereo unspecified) | 4300 | 438 | 1020 | 60 | 0.43 | 10000 |  |  |  |
| CC(C)(CN(CC(=O)NC(CCCNC=N)B(O)O)C(=O)CCc1ccccc1)c1ccccc1 (stereo unspecified) |  | 80 |  |  | 1.2 |  |  |  |  |

Second part, led by results:

| IC50 [1] [nM] | Ki (Coagulation factor X) [nM] | Ratio [2] | Level (Rattus norvegicus [3]) | Ki (Prothrombin) [nM] | Ratio [4] | SMILES | BP (Rattus norvegicus [5]) [mmHg] | BP (Rattus norvegicus [6]) | BP (Rattus norvegicus [7]) [mmHg] |
| --- | --- | --- | --- | --- | --- | --- | --- | --- | --- |
| 2390 | 392 | 740 | 70 | 0.53 | 4510 | Cc1cc(C)cc(C(C)(C)CN(CC(=O)NC(CCC/N=C/N)B(O)O)C(=O)CCc2ccccc2)c1 (stereo unspecified) |  |  |  |
| 170 | 54 | 193 |  | 0.28 | 607 | Cc1cc(C)cc(CCN(CC(=O)NC(CCCCN)B(O)O)C(=O)CCc2ccccc2)c1 (stereo unspecified) |  |  |  |
| < 40 |  | 26 |  |  | < 69 | Cc1cc(C)cc(CCN(CC(=O)NC(CCCN=C(N)N)B(O)O)C(=O)CCc2ccccc2)c1 (stereo unspecified) |  |  |  |
| 320 | 62 | 207 |  | 0.3 | 1070 | Cc1cc(C)cc(C(C)(C)CN(CC(=O)NC(CCCN=C(N)N)B(O)O)C(=O)CCc2ccccc2)c1 (stereo unspecified) |  |  |  |
| 130 |  | 1650 | 211 |  | 2170 | CC(C)(CN(CC(=O)NC(CCCN=C(N)N)B(O)O)C(=O)CCc1ccccc1)c1ccccc1 (stereo unspecified) |  |  | >40 |
|  | 99 |  |  | 0.06 |  | CC(C)(CN(CC(=O)NC(CCCNC(=N)N)B(O)O)C(=O)CCc1ccccc1)c1ccccc1 (stereo unspecified) |  |  |  |
| 1300 | 320 | 889 | 53 | 0.36 | 3610 | CC(C)(CN(CC(=O)NC(CCCCN)B(O)O)C(=O)CCc1ccccc1)c1ccccc1 (stereo unspecified) |  |  |  |
|  | 15 |  |  | 0.58 |  | Cc1cc(C)cc(CCN(CC(=O)NC(CCCNC(=N)N)B(O)O)C(=O)CCc2ccccc2)c1 (stereo unspecified) |  |  |  |
|  | 30 |  |  | 0.37 |  | Cc1cc(C)cc(CCN(CC(=O)NC(CCCNC=N)B(O)O)C(=O)CCc2ccccc2)c1 (stereo unspecified) |  |  |  |
| 6900 |  | 67 | 70 |  | 5750 | CC(C)(CN(CC(=O)NC(CCC/N=C/N)B(O)O)C(=O)CCc1ccccc1)c1ccccc1 (stereo unspecified) |  |  |  |
| 400 |  | 81 |  |  | 1080 | Cc1cc(C)cc(CCN(CC(=O)NC(CCC/N=C/N)B(O)O)C(=O)CCc2ccccc2)c1 (stereo unspecified) |  |  |  |
| 2450 | 810 | 1980 | 78 | 0.41 | 5980 | Cc1cc(C)cc(C(C)(C)CN(CC(=O)NC(CCCCN)B(O)O)C(=O)CCc2ccccc2)c1 (stereo unspecified) |  |  |  |
